Measurements as given in patent US20230158124A1, “DRUG, FOOD AND APPLICATION OF ANTI-CORONAVIRUS INFECTION” (priority 2020, published 2023).

Key:
[1] = tested on: novel coronavirus; experiment: In vitro inhibition of cytopathic effect caused by novel coronavirus in Vero E6 cells (CCK8); format: cell-based, COVID-19 novel coronavirus; settings: for inhibition of cytopathic effect caused by the novel coronavirus (in words): Vero E6, summary of Table 1
[2] = tested on: TNF-α mRNA; format: cell-based, African green monkey; settings: 350 μg/mL; virus control 3.61 ± 0.29, blank 1.01 ± 0.06
[3] = tested on: IL-6 mRNA; format: cell-based, African green monkey; settings: 350 μg/mL; virus control 7.68 ± 0.50, blank 1.08 ± 0.07
[4] = tested on: guinea pig inhaling smoke; experiment: Airway resistance and lung function of guinea pig inhaling smoke; format: in vivo; settings: once daily 4 weeks
Description: A smoked model is a classic animal modeling method of chronic obstructive pulmonary disease. After inhaling smoke for a long time, the animal may suffer from increase of mucus secretion, airway obstruction, and decrease of lung function. The effect of lysozyme on the airway obstruction was evaluated by the modeling method.
Male Hartley guinea pigs with weights ranging from 400 g to 500 g were randomly divided into a blank group, a model group, a lysozyme oral administration group (200 mg/kg), a lysozyme inhalation group (2 mg/kg), a lysozyme+monoammonium glycyrrhizinate inhalation group (2 mg/kg+0.1 mg/kg), a lysozyme+monopotassium glycyrrhizinate oral administration group I (200 mg/kg+20 mg/kg), and a lysozyme+monopotassium glycyrrhizinate oral administration group II (200 mg/kg+40 mg/kg), with eight animals in each group.
The animals in each group except the blank group were exposed to cigarette smoke by using a smoke exposure system inhaled only through nose and mouth, so that the animals inhaled smoke of five cigarettes within 40 minutes every day, for 5 days every week, and for 12 consecutive weeks.
Lysozyme and monoammonium glycyrrhizinate used for inhalation administration were respectively crushed into powder with a particle size less than […]. Then lysozyme and monopotassium glycyrrhizinate used for oral administration were respectively dissolved in normal saline.
The animals in each group except the blank group and the model group were administrated once every day for 4 consecutive weeks from the 8t^h week after modeling. The inhalation groups were administrated by a mouth and nose inhalation exposure system, while the oral administration groups were administrated by oral gavage. The blank group and the model group were administrated by oral gavage with normal saline every day.
Airway resistance measurement and the measurement of force expiratory volume in 100ms(millisecond) were performed after administration.
The animals were placed in a double chamber plethysmography system, and a specific airway resistance (sRaw) was measured after the animals were quiet for 10 minutes. The animals were anesthetized by intramuscular injection of ketamine, then a catheter was inserted into the trachea, and the force expiratory volume in 100ms […] was measured by a lung function detection system.

[5] = tested on: intestinal barrier dysfunction of mice induced by lipopolysaccharide; experiment: Intestinal permeability (serum FITC-glucan) in mice with intestinal barrier dysfunction induced by lipopolysaccharide; format: in vivo; settings: 100 mg/kg oral gavage 30 days; model 35.06 ± 5.75, blank 9.40 ± 1.45
Description: Lipopolysaccharide could cause intestinal dysfunction of animals. The protective effects of the lysozyme and the combination containing lysozyme on the intestinal barrier dysfunction of mice induced by the lipopolysaccharide were researched in the test.
Test animals: male C57BL/6 mice with a cleaning degree, and with a weight ranging from 20 g to 25 g.
Grouping and administration of animals: the animals were randomly divided into a blank group, a model group, a lysozyme group (100 mg/kg), a lysozyme+monoammonium glycyrrhizinate group A (100 mg/kg+2 mg/kg), a lysozyme+monoammonium glycyrrhizinate group B (100 mg/kg+10 mg/kg), a lysozyme+monoammonium glycyrrhizinate group C (100 mg/kg+20 mg/kg), and a lysozyme+dipotassium glycyrrhizinate group (100 mg/kg+2 mg/kg), with eight animals in each group. Each drug group was administrated by oral gavage according to the dosage every day, while the blank group and the model group were administrated with normal saline. The administration was continuously performed for 30 days. […]
Measurement of intestinal permeability: animals of each group were administrated by oral gavage with 600 mg/kg FITC-glucan (dissolved in a phosphate buffer), and blood was taken from an eyeball after 4 hours. The content of the FITC-glucan in serum was measured by fluorescence spectrometry (with an excitation wavelength of 480 nm and an emission wavelength of 520 nm).

[6] = tested on: Occludin mRNA; experiment: Expression of intestinal tissue tight junction protein in LPS mice, jejunum, quantitative PCR (occludin); format: in vivo; settings: 100 mg/kg, model 0.54 ± 0.09, blank 1.04 ± 0.12
Description: (§1) Grouping and administration of animals: the animals were randomly divided into a blank group, a model group, a lysozyme group (100 mg/kg), a lysozyme+monoammonium glycyrrhizinate group A (100 mg/kg+2 mg/kg), a lysozyme+monoammonium glycyrrhizinate group B (100 mg/kg+10 mg/kg), a lysozyme+monoammonium glycyrrhizinate group C (100 mg/kg+20 mg/kg), and a lysozyme+dipotassium glycyrrhizinate group (100 mg/kg+2 mg/kg), with eight animals in each group. Each drug group was administrated by oral gavage according to the dosage every day, while the blank group and the model group were administrated with normal saline. The administration was continuously performed for 30 days.
(§2) Modeling: after the administration, the animals of each group except the blank group were intraperitoneally injected with 15 mg/kg lipopolysaccharide, and the blank group was injected with the normal saline. The animals were fasted for 12 hours after injection.
(§3) Determination of the expression of intestinal tissue tight junction protein: after the animals were killed, the jejunum tissue sample was taken to extract RNA, and relative expression levels of […] in the tissue were detected by quantitative PCR.

[7] = tested on: Claudin-1 mRNA; experiment: Expression of intestinal tissue tight junction protein in LPS mice, jejunum, quantitative PCR (Claudin-1); format: in vivo; settings: 100 mg/kg, model 0.73 ± 0.13, blank 1.07 ± 0.11
Description: as §1, §2, §3

[8] = 1,000 μg/mL, Vero E6, 100TCID50, 4 days
[9] = 2,000 μg/mL, Vero E6, 100TCID50, 4 days

Compound | Inhibition rate (%) on cytopathic effect [1, 8] [%] | Inhibition rate (%) on cytopathic effect [1, 9] [%] | inhibition of cytopathic effect caused by the novel coronavirus (in words) [1] | Inhibition rate (%) on cytopathic effect ([1]; 350 μg/mL, Vero E6) [%] | Inhibition rate (%) on cytopathic effect ([1]; 500 μg/mL, Vero E6, 100TCID50, 4 days) [%] | TNF-α mRNA Relative expression quantity [2] | IL-6 mRNA Relative expression quantity [3] | Airway resistance ([4]; inhalation, 2 mg/kg) [cmH2O · s] | Force expiratory volume in 100 ms ([4]; inhalation, 2 mg/kg) [mL] | Force expiratory volume in 100 ms ([4]; oral administration, 200 mg/kg, model 4.18 ± 1.26, blank 11.86 ± 1.24) [mL] | Airway resistance ([4]; oral administration, 200 mg/kg, model 4.72 ± 0.38, blank 1.43 ± 0.24) [cmH2O · s] | Content of FITC-glucan (serum) [5] [µg/mL] | Occludin mRNA Relative expression quantity [6] | Claudin-1 mRNA Relative expression quantity [7]
CC1(C)[C@@H](O[C@H]2O[C@H](C(=O)O)[C@@H](O)[C@H](O)[C@H]2O[C@@H]2O[C@H](C(=O)O)[C@@H](O)[C@H](O)[C@H]2O)CC[C@]2(C)[C@H]3C(=O)C=C4[C@@H]5C[C@@](C)(C(=O)O)CC[C@]5(C)CC[C@@]4(C)[C@]3(C)CC[C@@H]12.N [Monoammonium glycyrrhizinate, monoammonium glycyrrhizinate, reference compound] | 23.35 ± 5.43 | 29.42 ± 7.16 | weak inhibition effect | – | – | – | – | – | – | – | – | – | – | –
Lysozyme | 46.67 ± 15.28 | 78.33 ± 2.89 | significantly inhibit | 6.67 ± 1.56 | 15.00 ± 8.66 | 3.12 ± 0.26 | 6.78 ± 0.30 | 3.10 ± 0.14 | 7.68 ± 1.36 | 5.79 ± 2.03 | 3.79 ± 0.30 | 27.53 ± 3.21 | 0.69 ± 0.07 | 0.79 ± 0.16
